In brackets after ≈: the same amount, converted by molar mass. Like-named read-outs stand apart in the source and are kept apart here. Marks after values point to notes of the source that are not given here.
Key:
[1] = test system: intracellular APEC O1 in HD11 cells; assay: Intracellular survival assay (cidal SMs); details: O1, HD11, 6 h treatment; superscript = multiple of MIC
[2] = test system: Rif^r APEC O78; assay: In vivo efficacy of growth inhibitors in APEC infected broiler chickens; details: for reduction of average APEC load in internal organs: average of liver, lung and kidney; for reduction of average APEC load in internal organs / reduction of APEC load, Heart / reduction of APEC load, Kidney / reduction of APEC load, Liver / reduction of APEC load, Lung: vs untreated control; for reduction of APEC induced mortality: oral gavage twice a day, 5 days, untreated mortality (58.34%) normalized to 100%; for Body weight gain (BWG): weight of live chickens before necropsy minus weight before treatment
[3] = test system: APEC O78-53; assay type: cell-based, avian pathogenic Escherichia coli (APEC); details: APEC O78-53, M63 media; MIC/MBC
[4] = test system: intracellular APEC O78 in THP-1 cells; assay: Intracellular survival assay (cidal SMs); details: O78, THP-1, 6 h treatment; superscript = multiple of MIC
[5] = test system: APEC O78; assay: Confocal microscopy bacterial cytological profiling; assay type: cell-based, avian pathogenic Escherichia coli (APEC); details: 2X MBC
Procedure: Confocal and scanning electron microscopy. Confocal microscopy was used for bacterial cytological profiling (BCP) to identify the cellular pathways targeted by SMs as described previously. […] After incubation, treated cultures were centrifuged, washed, and resuspended in 100 μL PBS. […] Cultures were then centrifuged, washed, and resuspended in PBS to 1⁄10th volume of the original cultures.

[6] = test system: APEC O2; assay type: cell-based, avian pathogenic Escherichia coli (APEC); details: APEC O2, M63 media; MIC/MBC
[7] = test system: APEC O18; assay type: cell-based, avian pathogenic Escherichia coli (APEC); details: APEC O18, M63 media; MIC/MBC
[8] = test system: intracellular APEC O2 in Caco-2 cells; assay: Intracellular survival assay (cidal SMs); details: O2, Caco-2, 6 h treatment; superscript = multiple of MIC
[9] = test system: intracellular APEC O2 in HD11 cells; assay: Intracellular survival assay (cidal SMs); details: O2, HD11, 6 h treatment; superscript = multiple of MIC
[10] = test system: APEC O15; assay type: cell-based, avian pathogenic Escherichia coli (APEC); details: APEC O15, M63 media; MIC/MBC
[11] = test system: intracellular APEC O78 in HD11 cells; assay: Intracellular survival assay (cidal SMs); details: O78, HD11, 6 h treatment; superscript = multiple of MIC
[12] = test system: APEC O78; assay: Loss of 260/280 nm absorbing materials assay; assay type: cell-based, avian pathogenic Escherichia coli (APEC); details: 2X MBC, 1 h, *P<0.05 vs DMSO; for Absorbance 260: 260 nm absorbing material in supernatant; for Absorbance 280: 280 nm absorbing material in supernatant
[13] = test system: APEC O8; assay type: cell-based, avian pathogenic Escherichia coli (APEC); details: APEC O8, M63 media; MIC/MBC
[14] = test system: APEC O1; assay type: cell-based, avian pathogenic Escherichia coli (APEC); details: APEC O1, M63 media; MIC/MBC
[15] = test system: Shiga toxin-producing (STEC) O157 and O26 strains; assay type: cell-based, E. coli; details: 100 µM, M63 media
[16] = test system: APEC O35; assay type: cell-based, avian pathogenic Escherichia coli (APEC); details: APEC O35, M63 media; MIC/MBC
[17] = test system: intracellular APEC O2 in THP-1 cells; assay: Intracellular survival assay (cidal SMs); details: O2, THP-1, 6 h treatment; superscript = multiple of MIC
[18] = test system: APEC O2-211; assay type: cell-based, avian pathogenic Escherichia coli (APEC); details: APEC O2-211, M63 media; MIC/MBC
[19] = test system: intracellular APEC O78 in Caco-2 cells; assay: Intracellular survival assay (cidal SMs); details: O78, Caco-2, 6 h treatment; superscript = multiple of MIC
[20] = test system: APEC O78; assay type: cell-based, avian pathogenic Escherichia coli (APEC); details: for MBC relative to MIC: APEC O78; for MBC / MIC: APEC O78, M63 media
[21] = test system: APEC O1-63; assay type: cell-based, avian pathogenic Escherichia coli (APEC); details: APEC O1-63, M63 media; MIC/MBC
[22] = test system: intracellular APEC O1 in Caco-2 cells; assay: Intracellular survival assay (cidal SMs); details: O1, Caco-2, 6 h treatment; superscript = multiple of MIC
[23] = test system: APEC O109; assay type: cell-based, avian pathogenic Escherichia coli (APEC); details: APEC O109, M63 media; MIC/MBC
[24] = test system: intracellular APEC O1 in THP-1 cells; assay: Intracellular survival assay (cidal SMs); details: O1, THP-1, 6 h treatment; superscript = multiple of MIC
[25] = test system: biofilm embedded APEC O78; assay: MBEC High-throughput assay; assay type: cell-based, avian pathogenic Escherichia coli (APEC); details: biofilm embedded APEC O78; superscript = multiple of MIC (footnote)
[26] = test system: APEC O115; assay type: cell-based, avian pathogenic Escherichia coli (APEC); details: APEC O115, M63 media; MIC/MBC
[27] = cell prints MIC/MBC, listed as 1

## CC1CCCN(CCC(=O)c2ccc(Br)cc2)C1.Cl (stereo not drawn) [SM1]
[1]
  SMs intracellular APEC clearance concentration: 400^b µM
[2]; heart
  reduction of average APEC load in internal organs: either exacerbated or did not reduce
[2]
  reduction of APEC induced mortality: 14.28%
  reduction of APEC load, Heart: -1.8 log CFU/g of tissues
  reduction of APEC load, Kidney: -1.1 log CFU/g of tissues
  reduction of APEC load, Liver: -2.0 log CFU/g of tissues
  reduction of APEC load, Lung: -1.4 log CFU/g of tissues
  Body weight gain (BWG): 165.62±69.17
[2]; untreated control = 100%
  reduction of APEC lesions severity (%), Air-sacs (airsacculitis): -5.9%
  reduction of APEC lesions severity (%), Heart (pericarditis): 33.3%
  reduction of APEC lesions severity (%), Liver (perihepatitis): -20%
[3]
  MBC: 200 µM
  MIC: 200 µM
[4]
  SMs intracellular APEC clearance concentration: 200^a µM
[5]
  cytological profile (confocal, FM4-64 / SYTO-9): PG synthesis inhibitors
[6]
  MBC: 200 µM
  MIC: 200 µM
[7]
  MBC: 200 µM
  MIC: 200 µM
[8]
  SMs intracellular APEC clearance concentration: >400 µM
[9]
  SMs intracellular APEC clearance concentration: 200^a µM
[10]
  MBC: 250 µM
  MIC: 200 µM
[11]
  SMs intracellular APEC clearance concentration: 200^a µM
[12]
  Absorbance 260: 4.00*
  Absorbance 280: 3.08*
[13]
  MBC: 200 µM
  MIC: 200 µM
[14]
  MBC: 250 µM
  MIC: 200 µM
[15]
  activity against STEC O157 and O26 strains: not cidal
[16]
  MBC: 200 µM
  MIC: 200 µM
[17]
  SMs intracellular APEC clearance concentration: 200^a µM
[18]
  MBC: 200 µM
  MIC: 200 µM
[19]
  SMs intracellular APEC clearance concentration: 200^a µM
[20]
  MBC relative to MIC: identical to MIC
[20]; cell prints MIC/MBC
  MBC: 200 µM
[20]; [27]
  MBC: 200 µM
  MIC: 200 µM
[21]
  MBC: 250 µM
  MIC: 200 µM
[22]
  SMs intracellular APEC clearance concentration: >400 µM
[23]
  MBC: 200 µM
  MIC: 200 µM
[24]
  SMs intracellular APEC clearance concentration: 400^b µM
[25]
  MBEC: 400^d µM
[26]
  MBC: 200 µM
  MIC: 200 µM

## COc1cc(CNCCc2ccc3ccccc3c2)ccc1OCC(O)CN1CCCC1 (stereo not drawn) [SM2]
[1]
  SMs intracellular APEC clearance concentration: 200b µM
[2]; heart
  reduction of average APEC load in internal organs: 1.3 logs
[2]; liver, heart, lung and air-sacs, untreated 6.2
  cumulative lesions score: 5.4
[2]
  reduction of APEC induced mortality: 42.86%
  reduction of APEC load, Heart: 0.8 log CFU/g of tissues
  reduction of APEC load, Kidney: 1.8 log CFU/g of tissues
  reduction of APEC load, Liver: 1.2 log CFU/g of tissues
  reduction of APEC load, Lung: 1.5 log CFU/g of tissues
  Body weight gain (BWG): 125.48±34.66^b
[2]; untreated control = 100%
  reduction of APEC lesions severity (%), Air-sacs (airsacculitis): 17.7%
  reduction of APEC lesions severity (%), Liver (perihepatitis): 0%
[3]
  MBC: 200 µM (≈ 86.9 µg/mL)
  MIC: 100 µM (≈ 43.5 µg/mL)
[4]
  SMs intracellular APEC clearance concentration: 100^a µM
[5]
  cytological profile (confocal, FM4-64 / SYTO-9): membrane pore formers
[6]
  MBC: 250 µM (≈ 109 µg/mL)
  MIC: 200 µM (≈ 86.9 µg/mL)
[7]
  MBC: 200 µM (≈ 86.9 µg/mL)
  MIC: 100 µM (≈ 43.5 µg/mL)
[8]
  SMs intracellular APEC clearance concentration: >200 µM
[9]
  SMs intracellular APEC clearance concentration: 200^b µM
[10]
  MBC: 100 µM (≈ 43.5 µg/mL)
  MIC: 100 µM (≈ 43.5 µg/mL)
[11]
  SMs intracellular APEC clearance concentration: 100^a µM
[12]
  Absorbance 260: 3.71
  Absorbance 280: 2.86*
[13]
  MBC: 200 µM (≈ 86.9 µg/mL)
  MIC: 100 µM (≈ 43.5 µg/mL)
[14]
  MBC: 250 µM (≈ 109 µg/mL)
  MIC: 200 µM (≈ 86.9 µg/mL)
[15]
  activity against STEC O157 and O26 strains: not cidal
[16]
  MBC: 200 µM (≈ 86.9 µg/mL)
  MIC: 100 µM (≈ 43.5 µg/mL)
[17]
  SMs intracellular APEC clearance concentration: 100^a µM
[18]
  MBC: 100 µM (≈ 43.5 µg/mL)
  MIC: 100 µM (≈ 43.5 µg/mL)
[19]
  SMs intracellular APEC clearance concentration: 100^a µM
[20]
  MBC relative to MIC: identical to MIC
[20]; MIC/MBC
  MIC: 100 µM (≈ 43.5 µg/mL)
[20]; cell prints MIC/MBC
  MBC: 100 µM (≈ 43.5 µg/mL)
[21]
  MBC: 250 µM (≈ 109 µg/mL)
  MIC: 200 µM (≈ 86.9 µg/mL)
[22]
  SMs intracellular APEC clearance concentration: >200 µM
[23]
  MBC: 200 µM (≈ 86.9 µg/mL)
  MIC: 100 µM (≈ 43.5 µg/mL)
[24]
  SMs intracellular APEC clearance concentration: 200^b µM
[25]
  MBEC: 50^b µM
[26]
  MBC: 200 µM (≈ 86.9 µg/mL)
  MIC: 200 µM (≈ 86.9 µg/mL)

## COc1ccc(CCN(Cc2cc3c(cc2Cl)OCO3)CC2CCN(C)CC2)cc1 [SM11]
[1]
  SMs intracellular APEC clearance concentration: 200^b µM
[3]
  MBC: 200 µM (≈ 86.2 µg/mL)
  MIC: 100 µM (≈ 43.1 µg/mL)
[4]
  SMs intracellular APEC clearance concentration: 100^a µM
[5]
  cytological profile (confocal, FM4-64 / SYTO-9): membrane pore formers
[6]
  MBC: 200 µM (≈ 86.2 µg/mL)
  MIC: 100 µM (≈ 43.1 µg/mL)
[7]
  MBC: 200 µM (≈ 86.2 µg/mL)
  MIC: 200 µM (≈ 86.2 µg/mL)
[8]
  SMs intracellular APEC clearance concentration: 200^b µM
[9]
  SMs intracellular APEC clearance concentration: 200^b µM
[10]
  MBC: 100 µM (≈ 43.1 µg/mL)
  MIC: 100 µM (≈ 43.1 µg/mL)
[11]
  SMs intracellular APEC clearance concentration: 100^a µM
[12]
  Absorbance 260: 4.00*
  Absorbance 280: 2.89*
[13]
  MBC: 200 µM (≈ 86.2 µg/mL)
  MIC: 200 µM (≈ 86.2 µg/mL)
[14]
  MBC: 100 µM (≈ 43.1 µg/mL)
  MIC: 100 µM (≈ 43.1 µg/mL)
[15]
  activity against STEC O157 and O26 strains: not cidal
[16]
  MBC: 200 µM (≈ 86.2 µg/mL)
  MIC: 100 µM (≈ 43.1 µg/mL)
[17]
  SMs intracellular APEC clearance concentration: 100^a µM
[18]
  MBC: 100 µM (≈ 43.1 µg/mL)
  MIC: 100 µM (≈ 43.1 µg/mL)
[19]
  SMs intracellular APEC clearance concentration: 100^a µM
[20]
  MBC relative to MIC: identical to MIC
[20]; MIC/MBC
  MIC: 100 µM (≈ 43.1 µg/mL)
[20]; cell prints MIC/MBC
  MBC: 100 µM (≈ 43.1 µg/mL)
[21]
  MBC: 200 µM (≈ 86.2 µg/mL)
  MIC: 100 µM (≈ 43.1 µg/mL)
[22]
  SMs intracellular APEC clearance concentration: >200 µM
[23]
  MBC: 200 µM (≈ 86.2 µg/mL)
  MIC: 200 µM (≈ 86.2 µg/mL)
[24]
  SMs intracellular APEC clearance concentration: >200 µM
[25]
  MBEC: 400^d µM
[26]
  MBC: 200 µM (≈ 86.2 µg/mL)
  MIC: 200 µM (≈ 86.2 µg/mL)
